# Experimental data from patent publication US9426996B2, “Use of benzoxaboroles as volatile antimicrobial agents on meats, plants, or plant parts” (AgroFresh Inc., priority 2013, dated 2016).
# Key:
# Escherichia coli = experiment: in vivo volatile bioassay on fresh beef
# Method: (§1) In order to assess the in vivo activity of volatile antimicrobial Compound A, a volatile bioassay is developed to evaluate the control of Escherichia coli and Salmonella enterica on fresh beef. The beef is washed to remove any natural inoculum by rinsing in warm water for 2 minutes. Two strips, single layer, are placed in a sterile 10.8-cup SnapWare airtight container (Model #109842).
# (§2) Each strip is inoculated on the surface by placing 20 μL of either E. coli or S. enterica cell suspensions that are adjusted to an optical density of 0.35 (600 nm), and further diluted 1/10. For determination of efficacy, Compound A powder is introduced into the container with a sublimation device (copper tube heated to 200° C. with fan flow at 0.5 liters per minute (L/min)) at a rate required to achieve a final headspace concentration of 100 mg/L. The containers and their contents are then incubated for 2 days at 21° C. After treatment, the beef is washed, and the wash is collected, serially diluted, plated on nutrient agar, and then incubated for an additional 24 hours at 37° C. Bacterial colonies are counted and expressed as colony forming units (CFU/mL), with the log reduction calculated relative to the control.
# Salmonella enterica = experiment: in vivo volatile bioassay on fresh beef; settings: S. enterica from beef; 100 mg/L headspace; 2 days at 21° C.
# Method: as §1, §2
# Botrytis cinerea = experiment: in vivo volatile bioassay using strawberry, grape and blueberry
# Method: In order to assess the in vivo activity of volatile antimicrobial Compound A in fruit, a volatile bioassay is developed using strawberry, grape and blueberry. Eight strawberries, 16 grapes or 30 blueberries (per replicate) are placed in a commercially relevant sized PET clamshell, with the stem end facing up for blueberries and grapes, and downwards for strawberries. A fresh wound is inoculated with 20 μL (strawberry and grape) or 10 μL (blueberry) of 1×10^6 per mL Botrytis cinerea spore suspension. The clamshells are placed inside a 10.8-cup SnapWare airtight container (Model #109842). A 42.5 mm Whatman #1 filter disk (Cat. No. 1001-042) is placed on a watch glass. Compound A is dissolved in acetone and added to the disks in a dose dependent manner to produce a final headspace concentration of 0.4, 2, or 10 mg/L. The acetone is permitted to evaporate for five minutes. The containers are then closed with lids and placed for three days at 21° C. After storage, fruits are evaluated for incidence and severity (0 to 4) of disease for an additional three days at 21° C., with results summarized in Table 17.
# Xanthomonas axonopodis = experiment: in vitro volatile assay, minimum bactericidal concentration (Example 11); assay type: cell-based; settings: headspace concentration; 23° C. for 48 hours
# Method: (§3) 12-Well (6.5 mL volume per well) microtiter plates are used for the in vitro inhibition assay for volatile antimicrobial Compound A (FIG. 1) against numerous bacterial pathogens. A 3-mL volume of Nutrient agar is added to each well and allowed to dry before introducing the pathogen. Escherichia coli, Pectobacterium carotovorum, Xanthomonas axonopodis and Salmonella enterica cell suspensions are adjusted to an optical density of 0.2 to 0.35, and further diluted 1/10, and 15 μL is pipetted to the center of each well and tilted to distribute uniformly. A Whatman #1 filter paper (CAT 1001-0155) is placed on the underside of a polyethylene PCR plate sealing film. […] The films with the treated disks are then applied over the inoculated plates and sealed. Plates are inverted, and incubated at 23° C. for 48 hours. After the incubation period, the bacteria colonies are dislodged in sterile water containing tween 80 (0.001%) and the optical density (OD; 600 nm) is determined Results are summarized in Table 10, where the headspace concentration required to control at least 80% of bacterial growth is reported.
# [1] = tested on: Pectobacterium carotovorum; experiment: as above; assay type: cell-based; settings: headspace concentration; 23° C. for 48 hours
# Method: as §3
# [2] = Blueberry, 0.4 mg/L, evaluation day 0
# [3] = Blueberry, 0.4 mg/L, evaluation day 1
# [4] = Blueberry, 0.4 mg/L, evaluation day 2
# [5] = Blueberry, 0.4 mg/L, evaluation day 3
# [6] = Blueberry, 2 mg/L, evaluation day 0
# [7] = Blueberry, 2 mg/L, evaluation day 1
# [8] = Blueberry, 2 mg/L, evaluation day 2
# [9] = Blueberry, 2 mg/L, evaluation day 3
# [10] = Blueberry, 10 mg/L, evaluation day 0
# [11] = Blueberry, 10 mg/L, evaluation day 1
# [12] = Blueberry, 10 mg/L, evaluation day 2
# [13] = Blueberry, 10 mg/L, evaluation day 3
# [14] = Grape, 0.4 mg/L, evaluation day 0
# [15] = Grape, 0.4 mg/L, evaluation day 1
# [16] = Grape, 0.4 mg/L, evaluation day 2
# [17] = Grape, 0.4 mg/L, evaluation day 3
# [18] = Grape, 2 mg/L, evaluation day 2
# [19] = Grape, 2 mg/L, evaluation day 3
# [20] = Grape, 10 mg/L, evaluation day 2
# [21] = Grape, 10 mg/L, evaluation day 3
# [22] = Strawberry, 0.4 mg/L, evaluation day 0
# [23] = Strawberry, 0.4 mg/L, evaluation day 1
# [24] = Strawberry, 0.4 mg/L, evaluation day 2
# [25] = Strawberry, 0.4 mg/L, evaluation day 3
# [26] = Strawberry, 2 mg/L, evaluation day 0
# [27] = Strawberry, 2 mg/L, evaluation day 1
# [28] = Strawberry, 2 mg/L, evaluation day 2
# [29] = Strawberry, 2 mg/L, evaluation day 3
# [30] = Strawberry, 10 mg/L, evaluation day 0
# [31] = Strawberry, 10 mg/L, evaluation day 1
# [32] = Strawberry, 10 mg/L, evaluation day 2
# [33] = Strawberry, 10 mg/L, evaluation day 3
structure (smiles),measurement,setting,value
OB1OCc2cc(F)ccc21 [Compound A],Log CFU/mL,"Escherichia coli; E. coli from beef, 100 mg/L headspace, 2 days at 21° C.",5.09 Log CFU/mL
same,Log reduction,"Escherichia coli; E. coli from beef, 100 mg/L, relative to the control",3.17 log
same,reduction of E. coli in percent,"Escherichia coli; beef, 100 mg/L, relative to the control",> 99.9%
same,Log CFU/mL,Salmonella enterica,4.95 Log CFU/mL
same,Incidence (%),Botrytis cinerea; [2],21%
same,Severity (0-4),Botrytis cinerea; [2],0.1
same,Incidence (%),Botrytis cinerea; [3],21%
same,Severity (0-4),Botrytis cinerea; [3],0.2
same,Incidence (%),Botrytis cinerea; [4],40.3%
same,Severity (0-4),Botrytis cinerea; [4],0.5
same,Incidence (%),Botrytis cinerea; [5],62.9%
same,Severity (0-4),Botrytis cinerea; [5],1
same,Incidence (%),Botrytis cinerea; [6],9.7%
same,Severity (0-4),Botrytis cinerea; [6],0
same,Incidence (%),Botrytis cinerea; [7],9.7%
same,Severity (0-4),Botrytis cinerea; [7],0
same,Incidence (%),Botrytis cinerea; [8],9.7%
same,Severity (0-4),Botrytis cinerea; [8],0.1
same,Incidence (%),Botrytis cinerea; [9],40.3%
same,Severity (0-4),Botrytis cinerea; [9],0.6
same,Incidence (%),Botrytis cinerea; [10],12.9%
same,Severity (0-4),Botrytis cinerea; [10],0.1
same,Incidence (%),Botrytis cinerea; [11],12.9%
same,Severity (0-4),Botrytis cinerea; [11],0.1
same,Incidence (%),Botrytis cinerea; [12],12.9%
same,Severity (0-4),Botrytis cinerea; [12],0.2
same,Incidence (%),Botrytis cinerea; [13],41.9%
same,Severity (0-4),Botrytis cinerea; [13],0.6
same,Incidence (%),Botrytis cinerea; [14],3.1%
same,Severity (0-4),Botrytis cinerea; [14],0
same,Incidence (%),Botrytis cinerea; [15],3.1%
same,Severity (0-4),Botrytis cinerea; [15],0
same,Incidence (%),Botrytis cinerea; [16],15.6%
same,Severity (0-4),Botrytis cinerea; [16],0.2
same,Incidence (%),Botrytis cinerea; [17],62.5%
same,Severity (0-4),Botrytis cinerea; [17],0.5
same,Severity (0-4),"Botrytis cinerea; Grape, 2 mg/L, evaluation day 0",0
same,Severity (0-4),"Botrytis cinerea; Grape, 2 mg/L, evaluation day 1",0
same,Incidence (%),Botrytis cinerea; [18],0%
same,Severity (0-4),Botrytis cinerea; [18],0
same,Incidence (%),Botrytis cinerea; [19],56.3%
same,Severity (0-4),Botrytis cinerea; [19],0.3
same,Severity (0-4),"Botrytis cinerea; Grape, 10 mg/L, evaluation day 0",0
same,Severity (0-4),"Botrytis cinerea; Grape, 10 mg/L, evaluation day 1",0
same,Incidence (%),Botrytis cinerea; [20],3.1%
same,Severity (0-4),Botrytis cinerea; [20],0
same,Incidence (%),Botrytis cinerea; [21],56.3%
same,Severity (0-4),Botrytis cinerea; [21],0.4
same,Incidence (%),Botrytis cinerea; [22],0%
same,Severity (0-4),Botrytis cinerea; [22],0
same,Incidence (%),Botrytis cinerea; [23],21.4%
same,Severity (0-4),Botrytis cinerea; [23],0.1
same,Incidence (%),Botrytis cinerea; [24],21.4%
same,Severity (0-4),Botrytis cinerea; [24],0.1
same,Incidence (%),Botrytis cinerea; [25],28.6%
same,Severity (0-4),Botrytis cinerea; [25],0.5
same,Incidence (%),Botrytis cinerea; [26],14.3%
same,Severity (0-4),Botrytis cinerea; [26],0.1
same,Incidence (%),Botrytis cinerea; [27],50%
same,Severity (0-4),Botrytis cinerea; [27],0.3
same,Incidence (%),Botrytis cinerea; [28],50%
same,Severity (0-4),Botrytis cinerea; [28],0.3
same,Incidence (%),Botrytis cinerea; [29],64.3%
same,Severity (0-4),Botrytis cinerea; [29],0.5
same,Incidence (%),Botrytis cinerea; [30],7.1%
same,Severity (0-4),Botrytis cinerea; [30],0
same,Incidence (%),Botrytis cinerea; [31],35.7%
same,Severity (0-4),Botrytis cinerea; [31],0.2
same,Incidence (%),Botrytis cinerea; [32],42.9%
same,Severity (0-4),Botrytis cinerea; [32],0.5
same,Incidence (%),Botrytis cinerea; [33],42.9%
same,Severity (0-4),Botrytis cinerea; [33],0.8
same,"Rate (mg/L) offering at least 80% control, X. axonopodis",Xanthomonas axonopodis,4.5 mg/L
same,"Rate (mg/L) offering at least 80% control, P. carotovorum",[1],2.2 mg/L
